Here are results for 8 compounds from patent publication US20030220524A1, “Sulfur containing compounds” (priority 2000, published 2003).

Structures are written as SMILES.

One data set relates to leukemic cells. Description: Trypan blue exclusion in combination with MTT activity. It is filed as cell-based, human. The note with it: in words. As to the method:
Adherent cells were seeded at 67×10^3 cells/mL in a 96 well plate (Falcon, Mississauga, Ontario) the day prior to exposure to compound. Suspension cells were seeded at 27×10^4 cells/mL in a 96 well plate the day of exposure to compound. Mononucleated, T-cell depleted normal bone marrow cells were seeded at 67×10^4 cells/mL in a 96 well plate the day of exposure to compound. Compounds and solvent control were added to cells and assayed in triplicate or sextuplet. Following 48 h of incubation at 37° C. with 5% CO2, 40 μL of a 5 mg/mL solution of 3-[4,5-dimethylthiazol-2-yl]-2,5-diphenyltetrazolium bromide (MTT) substrate (Sigma) in Dulbecco's phosphate-buffered saline (D-PBS) was added. After 4 h of incubation at 37° C. with 5% CO2, the resulting violet formazan precipitate was solubilized by the addition of 80 μL of a 0.01 M HCI, 10% sodium dodecyl sulfate (SDS; Sigma) solution overnight at 37° C. with 5% CO2. The plates were then analyzed using the BioRad Benchmark Microplate Reader (BioRad Laboratories, Hercules, Calif.) at 570 nm to determine the optical density of the samples. MTT data was analyzed using Prism 3.0 (GraphPad Software, Inc., San Diego, Calif.) by the Chou-Talalay method. MTT graphs shown are a representative experiment.
Leukemic cells were seeded in a 24-well plate (Nunc, Naperville, Ill.) at 25×10^4 cells/mL. Cells were then exposed in triplicate to solvent control or the approximate MTT50 concentration of compounds B, C, F, G or H at 10 μg/mL, or I at 5 μg/mL. The final solvent volume was 2.4 μL/mL of media for trypan blue exclusion assay. The compound was replenished after 48 h of treatment. Cell counts were evaluated using a 1:1 dilution of cell suspension in trypan blue (Gibco-BRL, Mississauga, Ontario, Canada). Viable and nonviable cells were counted using a hemocytometer. Cells which excluded trypan blue were counted as viable whereas stained cells were counted as nonviable. Trypan blue exclusion graphs shown are a representative experiment.
Leukemic cells were seeded in a 24-well plate (Nunc, Naperville, Ill.) at 25×10^4 cells/mL. Cells were then exposed in triplicate to solvent control or the approximate MTT50 concentration of compounds F (10 μg/mL), G (10 μg/mL) or 1 (5 μg/mL). The final solvent volume was 2.4 μL/mL of media for trypan blue exclusion assay. The compound was replenished after 48 h of treatment. Cell counts were evaluated using a 1:1 dilution of cell suspension in trypan blue (Gibco-BRL, Mississauga, Ontario, Canada). Viable and nonviable cells were counted using a hemocytometer. Cells which excluded trypan blue were counted as viable whereas stained cells were counted as nonviable. Trypan blue exclusion graphs shown are a representative experiment.

The test system of a further data set is AML-3 leukemic cell line. As to the kind of experiment: TUNEL, flow cytometry. It counts as cell-based, human. The arrangement: unit: %. The following applies: 48 h. As to the method: (§1) Adherent cell lines were plated at 35×10^4 cells/60 cm^2 dish the day before exposure to compound. Suspension cells were seeded at 25×10^4 cells/mL in a 6 well dish (Falcon) the day of exposure to compound. Mononucleated, T-cell depleted normal bone marrow cells were seeded at 50×10^4 cells/mL in a 6 well dish the day of exposure to compound. Cells were exposed to solvent control or approximate MTT50 and MTT30 concentrations of the compound. After 48 h of exposure to the compound, cells were harvested and fixed with a final concentration of 4% formaldehyde. Fixed cells were stored at −20° C. in 70% ethanol for no more than 5 days. Approximately 10^5 cells were pelleted and labeled with 0.02 mM Biotin-dUTP and 12.5 U TdT enzyme in a 1× reaction buffer (200 mM potassium cacodylate, 25 mM Tris-HCl, 25 μg/mL bovine serum albumin, pH 6.6), 2.5 mM CoCl2 and 0.01 mM dTTP (Roche Molecular Biochemicals, Laval, QC, Canada) for 45 min at 37° C. Samples were washed and incubated in 200 μL of 1:1000 fluorescein isothiocyanate (FITC)-conjugated avidin (Sigma) in 4×SSC, 5% skim milk powder and 0.05% Tween-20 (Sigma). Following 1 h of mixing at room temperature, the samples were washed and resuspended in 500 μL of D-PBS containing 2.5 μg/mL DNase-free RNase (Boehringer Mannheim) and 10 μg/mL PI. Following a 30 min incubation at room temperature, cells were analyzed using a XL-MCL flow cytometer (Coulter Corporation, Miami, Fla.) and a FACScalibar cytometer (Becton Dickinson, San Jose, Calif.). Profiles shown are representative of one experiment.
as §1, with “? s” for “Cells”, “appr ? nate” for “approximate”, “of” for “of the”, “Pl.” for “PI.”
On the technique in general: Flow cytometry measures light scatter and fluorescence of single cells or particles in a stream.

Take `c1ccc(SSc2ccccc2)cc1` [D, diphenyl disulphide]: the “Cytotoxicity to the leukemic cells (trypan blue exclusion with MTT activity)” value (from here on “Cytotoxicity to the leukemic cells”) in the data set with leukemic cells is listed as “cytotoxic to the leukemic cells in a dose-dependent manner”. Take `COC(=O)CSSC` [H, methyl 3,4-dithiopentanoate]: in the data set on AML-3 leukemic cell line (dose 65.7 uM (10 ug/mL)), the “TUNEL FITC +ve” value came to 10.2. Also, the “Cytotoxicity to the leukemic cells” value with leukemic cells is reported as “cytotoxic to the leukemic cells in a dose-dependent manner”. Take `CSCSCS(C)(=O)=O` [B]: the “TUNEL FITC +ve” value with AML-3 leukemic cell line (dose 107 uM (20 ug/mL)) was 3.85. `CSSCCS(C)(=O)=O` [F, 2,3,6-trithiaheptane 6,6,-dioxide]: the “TUNEL FITC +ve” value in the data set with AML-3 leukemic cell line (dose 45.8 uM (10 ug/mL)) stood at 31.9. For the same compound, in the data set with leukemic cells, the “Cytotoxicity to the leukemic cells” value is “cytotoxic to the leukemic cells in a dose-dependent manner”.

For the compound `CSSCOC(C)=O` [I, 2,3-dithiabutyl acetate], the “TUNEL FITC +ve” value in the data set on AML-3 leukemic cell line (dose 32.8 uM (5 ug/mL)) worked out at 57.3. Also, the “Cytotoxicity to the leukemic cells” value in the data set with leukemic cells is recorded as “cytotoxic to the leukemic cells in a dose-dependent manner”. As to `CS(=O)(=O)CSCS(C)(=O)=O` [G, 2,4,6-trithiaheptane 2,2,6,6-tetraoxide], the “TUNEL FITC +ve” value in the data set with AML-3 leukemic cell line (dose 45.8 uM (10 ug/mL)) was found to be 3.0.

`CSSCS(=O)(=O)c1ccc(C)cc1` [Compound C, α-p-toluenesulfonyl dimethyl disulphide]: the “TUNEL FITC +ve” value in the data set with AML-3 leukemic cell line (dose 20.2 uM (10 ug/mL)) is reported as 22.4. The “Cytotoxicity to the leukemic cells” value in the data set with leukemic cells is on record as “cytotoxic to the leukemic cells in a dose-dependent manner”. Consider `CS(=O)(=O)CSSc1ccccc1` [E, 5-phenyl-2,4,5-trithiapentane 2,2-dioxide], for which the “Cytotoxicity to the leukemic cells” value with leukemic cells is recorded as “cytotoxic to the leukemic cells in a dose-dependent manner”.
